Measurements reported in patent US7001625B2, “Solid phase synthesis of salts of organic acids including butyric acid” (Kemin Industires, Inc., priority 2001, dated 2006).

Legend:
Ross broiler chicks = experiment: Broiler pen trial, early chick growth to 15 days (organic acids and sodium butyrate); format: in vivo
From the text: In a broiler trial four different treatments were used in order to evaluate the possible synergistic effect between organic acids and sodium butyrate.
This pen trial included eight replicates of four treatments (Table 1). Each pen had 74 mixed sex commercial Ross broiler chicks. Birds were fed a wheat-based diet including enzymes. All birds were weighed on days 1, 5, 10 and 15.

Ross broilers = experiment: Broiler floor pen trial to day 39, formulations with or without calcium butyrate vs Avilamycine; format: in vivo
From the text: The objective of this trial was to study and compare two formulations (Table 4) with organic acids and calcium salts of organic acids. One of the formulations included calcium butyrate. Both formulations were compared with a positive and negative control in order to evaluate their possible growth promoting effect evaluated by broiler performance.
Twelve-hundred Ross broilers were divided over 40 floor pens. Each pen contained 15 male and 15 female Ross broilers, one tube feeder and one bell drinker. Feed and water were available ad libitum. All birds received a broiler starter feed from day 0 until day 11 and a broiler finisher meal from day 11 until day 39. […] Pens were assigned to one of four treatments (ten replicate pens for each treatment) using a block randomization. The in feed treatments consisted of: A. no treatment (negative control); B. Avilamycine 10 g/ton (positive control, dosed as Maxus G200 at 50 g/ton); C. Mixture 1, 5000 g/ton and D. mixture 2, 5000 g/ton. In the broiler house the temperature program started on day 0 at 31° C. decreasing 1° C. every two days until 21° C. was reached. The day-night cycle was 23 hours light and 1 hour dark. All birds were weighed at days 0, 11, 25, and 39. Feed usage was measured at days 11, 25 and 39. Live performance data were analyzed as a randomized block design with pen means as the statistical unit. Statistical analysis was performed with Figurepad Instat 2.0 and Microsoft Excel Analysis Toolpak software.

[1] = to 15 days, wheat-based diet, doses as in Table 1
[2] = day 11, Avilamycine 10 g/ton, formulations 5000 g/ton in feed, mean ± SD
[3] = day 25, Avilamycine 10 g/ton, formulations 5000 g/ton in feed, mean ± SD
[4] = day 39, Avilamycine 10 g/ton, formulations 5000 g/ton in feed, mean ± SD

| Compound | Feed conversion ratio based on weight gain, statistical comparison with control/other treatments (Ross broiler chicks; day 15, P<0.039 for the combination) | FCR based on wt gain (Ross broiler chicks; [1]) [a] | Feed consumed (g/bird) (Ross broiler chicks; [1]) | Weight gain (g/bird) (Ross broiler chicks; [1]) [a g/bird] | FCR day 11 (Ross broilers; [2]) [a] | WG(g) Day 11 (Ross broilers; [2]) [a g] | Weight gain compared with control groups, in words (Ross broilers; day 25) | FCR day 25 (Ross broilers; [3]) [a] | WG(g) Day 25 (Ross broilers; [3]) [b g] | FCR day 39 (Ross broilers; [4]) [ab] | WG(g) Day 39 (Ross broilers; [4]) [b g] |
| --- | --- | --- | --- | --- | --- | --- | --- | --- | --- | --- | --- |
| CCCC(=O)[O-].[Na+] [Treatment B, sodium butyrate] | not statistically different from the control group | 1.279 | 441.3 | 358.4 | – | – | – | – | – | – | – |
| Avilamycine | – | – | – | – | 1.314 ± 0.034 | 227 ± 7 | performed better than the negative control group | 1.775 ± 0.135 | 853 ± 44 | 1.839 ± 0.061 | 1981 ± 58 |
